Here are results for ten compounds from US8637510B2, “Morpholinothiazoles as alpha 7 positive allosteric modulators” (Janssen Pharmaceutica NV, priority 2009, dated 2014).

The term melting point denotes the temperature of the solid-liquid transition.

One data set has as its target T1, human alpha 7-wt nAChR (Homo sapiens, UniProt P36544).
T1 construct: expressed in transfected cells
In words: Ca2+ flux imaging (FDSS) (Protocol B). It counts as cell-based. The note with it: for Emax: efficacy of 100 μM choline defined as 100% in the absence of a PAM, read-out: a7-PAM-G_[33]_Eff_Curve_FI % Efficacy; for EC50: potentiation of 100 μM choline, compounds 0.01 μM to 30 μM, read-out: a7-PAM-G_[33]_pEC50 pEC50 (converted). Summed up: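 Fluo-4AM-loaded cells expressing human α7-wt nAChR, in HBSS with 10 mM HEPES, 5 mM CaCl2, 0.1% BSA, received compound (0.01–30 μM), typically 10 min before 100 μM choline, with calcium flux read in real time. Potentiation is relative to choline alone (100%); EC50 from sigmoidal curves.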

T1 sequence (P36544 23-502): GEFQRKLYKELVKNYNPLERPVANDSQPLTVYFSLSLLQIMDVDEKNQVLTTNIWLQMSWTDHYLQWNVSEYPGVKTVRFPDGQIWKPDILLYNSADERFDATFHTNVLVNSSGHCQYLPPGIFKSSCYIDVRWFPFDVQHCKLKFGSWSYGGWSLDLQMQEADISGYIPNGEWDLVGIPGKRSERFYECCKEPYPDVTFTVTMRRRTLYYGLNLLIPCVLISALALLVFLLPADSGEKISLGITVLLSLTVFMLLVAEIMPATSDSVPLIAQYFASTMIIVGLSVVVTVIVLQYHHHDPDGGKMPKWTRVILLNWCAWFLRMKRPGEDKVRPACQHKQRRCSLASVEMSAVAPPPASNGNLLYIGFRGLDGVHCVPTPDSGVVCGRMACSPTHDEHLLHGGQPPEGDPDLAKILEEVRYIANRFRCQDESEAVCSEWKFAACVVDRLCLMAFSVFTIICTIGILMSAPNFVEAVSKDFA

As to `Cc1cc(-c2sc(N3CCOCC3)nc2CNC(=O)CC2CC2)cc(C)n1` [Compound 64, N-[[5-(2,6-dimethyl-4-pyridinyl)-2-(4-morpholinyl)-4-thiazolyl]methyl]-cyclopropaneacetamide], the melting point was 188 °C. Further, the Emax at human alpha 7-wt nAChR is 980%.
Take `Cc1cc(-c2sc(N3C[C@@H](C)O[C@@H](C)C3)nc2CNC(=O)c2nocc2C)cc(C)n1` [Compound 174, N-[[2-[(2R,6S)-2,6-dimethyl-4-morpholinyl]-5-(2,6-dimethyl-4-pyridinyl)-4-thiazolyl]methyl]-4-methyl-3-isoxazolecarboxamide]: the melting point was 145 °C. On human alpha 7-wt nAChR, the Emax is 956% and the EC50 was 537 nM.
For `Cc1cc(-c2sc(N3CCOC(C)C3)nc2CNC(=O)c2cc(C)on2)cc(C)n1` (single isomer, unassigned) [Compound 74, N-[[5-(2,6-dimethyl-4-pyridinyl)-2-[(2R*)-2-methyl-4-morpholinyl]-4-thiazolyl]methyl]-5-methyl-3-isoxazolecarboxamide], the melting point worked out at 167 °C. In addition, the EC50 on human alpha 7-wt nAChR was 2000 nM.
On the same counts, the results for `Cc1cc(-c2sc(N3C[C@@H](C)O[C@@H](C)C3)nc2CNC(=O)c2occc2C)cc(C)n1` [Compound 147, N-[[2-[(2R,6S)-2,6-dimethyl-4-morpholinyl]-5-(2,6-dimethyl-4-pyridinyl)-4-thiazolyl]methyl]-3-methyl-2-furancarboxamide] are 149 °C and 912 nM.
On the same counts, the results for `Cc1cc(-c2sc(N3C[C@@H](C)O[C@@H](C)C3)nc2CNC(=O)c2cnn(C)c2C)cc(C)n1` [Compound 160, N-[[2-[(2R,6S)-2,6-dimethyl-4-morpholinyl]-5-(2,6-dimethyl-4-pyridinyl)-4-thiazolyl]methyl]-1,5-dimethyl-1H-pyrazole-4-carboxamide] are 169 °C and 8130 nM.
`Cc1cc(-c2sc(N3CCOCC3)nc2CNC(=O)c2ccc(F)cc2C)cc(C)n1` [Compound 80, N-[[5-(2,6-dimethyl-4-pyridinyl)-2-(4-morpholinyl)-4-thiazolyl]methyl]-4-fluoro-2-methyl-benzamide] had a melting point of 221 °C. In addition, at human alpha 7-wt nAChR, the Emax was 902% and the EC50 is 661 nM.
As for `Cc1ccc(-c2sc(N3C[C@@H](C)O[C@@H](C)C3)nc2CNC(=O)c2ccccc2Cl)cn1` [Compound 121, 2-chloro-N-[[2-[(2R,6S)-2,6-dimethyl-4-morpholinyl]-5-(6-methyl-3-pyridinyl)-4-thiazolyl]methyl]-benzamide], the melting point was 152 °C. At human alpha 7-wt nAChR, the Emax was found to be 356% and the EC50 is 2040 nM.
`COCC(=O)NCc1nc(N2C[C@@H](C)O[C@@H](C)C2)sc1-c1cc(C)nc(C)c1` [Compound 37, N-[[2-[(2R,6S)-2,6-dimethyl-4-morpholinyl]-5-(2,6-dimethyl-4-pyridinyl)-4-thiazolyl]methyl]-2-methoxy-acetamide] showed a melting point of 150 °C. Besides, the Emax at human alpha 7-wt nAChR is 293%.
In turn, `Cc1ccc(-c2sc(N3C[C@@H](C)O[C@@H](C)C3)nc2CNC(=O)c2ccc(F)cc2)cn1` [Compound 126, N-[[2-[(2R,6S)-2,6-dimethyl-4-morpholinyl]-5-(6-methyl-3-pyridinyl)-4-thiazolyl]methyl]-4-fluoro-benzamide] came in with a melting point of 195 °C. Also, on human alpha 7-wt nAChR, the Emax stood at 655% and the EC50 is 1660 nM.
In turn, `Cc1cc(-c2sc(N3C[C@@H](C)O[C@@H](C)C3)nc2CNC(=O)c2cccc(C(F)(F)F)c2)cc(C)n1` [Compound 44, N-[[2-[(2R,6S)-2,6-dimethyl-4-morpholinyl]-5-(2,6-dimethyl-4-pyridinyl)-4-thiazolyl]methyl]-3-(trifluoromethyl)-benzamide] registered a melting point of 180 °C. For the same compound, at human alpha 7-wt nAChR, the Emax was found to be 607% and the EC50 is 282 nM.
